Results taken from paper PMC9365377 (Clinical Cancer Research, 2022).
Entries after “also recorded” stand apart in the source; their conditions may differ. Like-named read-outs stand apart in the source and are kept apart here.

Experiments:
[1] = Plasma pharmacokinetics; type: in vivo, human; conditions: for Tmax: steady state; for Cmax: human, Cmax at steady state, geometric mean (geometric %CV)
[2] = phase I study; cited from earlier work
[3] = test system: advanced, previously untreated, unresectable, stage IIIC or IV NRAS-mutant melanoma; conditions: cited from earlier work
[4] = test system: patients with NRAS-mutant melanoma; experiment: Phase Ib dose escalation: DLTs in cycle 1, MTD/RP2D determination; type: in vivo, human; conditions: 28-day schedule
[5] = phase I study, 3 weeks on/1 week off; cited from earlier work
[6] = binimetinib 45 mg twice daily + ribociclib 200 mg once daily, 28-day schedule, 11 subjects
[7] = binimetinib 45 mg orally twice daily or dacarbazine 1,000 mg/m^2 intravenously every 3 weeks, 402 patients
[8] = patients who received prior immunotherapy

| SMILES | AUCtau at steady state, geometric mean (geometric %CV) ([1]; binimetinib 45 mg twice daily + ribociclib 200 mg once daily, 28-day schedule, 11 subjects, plasma) | Tmax [1, 6] | recommended phase II dose (RP2D), single agent [2] | PFS HR, binimetinib vs dacarbazine ([3]; 95% CI, 0.47–0.80, one-sided P < 0.001) | OS HR, binimetinib vs dacarbazine ([3]; 95% CI, 0.75–1.33, one-sided P = 0.50) | median PFS [3, 7] | median PFS [3, 8] | RP2D (in the combination) ([4]; continuous dosing) | Dose proportionality of steady-state exposures ([1]; dose-escalation range of 200 to 600 mg once daily) | Cmax ([1]; plasma, 600 mg ribociclib coadministered with binimetinib, 21-day cycle) | Cmax ([1]; plasma, binimetinib 45 mg twice daily + ribociclib 200 mg once daily, 28-day schedule, 11 subjects, plasma) | recommended dose for expansion, single agent [5] | RP2D (in the combination) ([4]; 21 days on/7 days off) |
| --- | --- | --- | --- | --- | --- | --- | --- | --- | --- | --- | --- | --- | --- |
| Cn1cnc2c(F)c(Nc3ccc(Br)cc3F)c(C(=O)NOCCO)cc21 [binimetinib] | 2,250 (37.7%) hour*ng/mL | about 1.00 hour postdose | 45 mg twice daily | 0.62 | 1.00 | 2.8 months | 5.5 months | 45 mg twice daily | – | – | – | – | – |
| CN(C)/N=N/c1[nH]cnc1C(N)=O [dacarbazine] | – | – | – | – | – | 1.5 months | 1.6 months | – | – | – | – | – | – |
| CN(C)C(=O)c1cc2cnc(Nc3ccc(N4CCNCC4)cn3)nc2n1C1CCCC1 [ribociclib] | – | about 2.25 hour postdose | – | – | – | – | – | – | increased greater than dose proportionally; also recorded: greater than dose proportional | 1910 ng/mL | 220 ng/mL | 600 mg/day | 200 mg once daily |
